How the values were obtained:
giant foxtail = experiment: Test B pre/postemergence giant foxtail; format: in vivo, Setaria faberii
Summary of the method: (§1)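 Test chemicals in a non-phytotoxic solvent mixture with surfactant were sprayed preemergence onto planted seeds and postemergence onto plants 2 to 18 cm tall (1- to 4-leaf stage). After twelve to sixteen days in a greenhouse, injury was visually rated against untreated controls from 0 (no effect) to 10 (complete control).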

cocklebur = experiment: Test B pre/postemergence cocklebur; format: in vivo, Xanthium strumarium
Summary of the method: as §1

duck salad = experiment: Test B flood test duck salad; format: in vivo, Heteranthera limosa
Summary of the method: (§2)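 Flood test on plants grown to the 2-leaf stage; treated plants kept in greenhouse twelve to sixteen days, then visually rated against controls on a 0 (no effect) to 10 (complete control) scale.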

sugar beet = experiment: Test B pre/postemergence sugar beet; format: in vivo, Beta vulgaris
Summary of the method: as §1

velvetleaf = experiment: Test B pre/postemergence velvetleaf; format: in vivo, Abutilon theophrasti
Summary of the method: as §1

crabgrass = experiment: Test B pre/postemergence crabgrass; format: in vivo, Digitaria sanguinalis
Summary of the method: as §1

wild oat = experiment: Test B pre/postemergence wild oat; format: in vivo, Avena fatua
Summary of the method: as §1

smallflower flatsedge = experiment: Test B flood test smallflower flatsedge; format: in vivo, Cyperus difformis
Summary of the method: as §2

rice = experiment: Test B flood test rice; format: in vivo, Oryza sativa
Summary of the method: as §2

soybean = experiment: Test B pre/postemergence soybean; format: in vivo, Glycine max
Summary of the method: as §1

morningglory = experiment: Test B pre/postemergence morningglory; format: in vivo, Ipomoea hederacea
Summary of the method: as §1

corn = experiment: Test B pre/postemergence corn; format: in vivo, Zea mays
Summary of the method: as §1

pigweed = experiment: Test B pre/postemergence pigweed; format: in vivo, Amaranthus retroflexus
Summary of the method: as §1

rape = experiment: Test B pre/postemergence rape; format: in vivo, Brassica napus
Summary of the method: as §1

wheat = experiment: Test B pre/postemergence wheat; format: in vivo, Triticum aestivum
Summary of the method: as §1

purple nutsedge = experiment: Test B pre/postemergence purple nutsedge; format: in vivo, Cyperus rotundus
Summary of the method: as §1

[1] = Postemergence, Rate 62 g/ha, scale 0 to 10, 0 is no effect, 10 is complete control
[2] = Postemergence, Rate 125 g/ha, scale of 0 to 10 where 0 is no effect and 10 is complete control
[3] = Postemergence, Rate 250 g/ha, scale of 0 to 10, 0 is no effect, 10 is complete control
[4] = Postemergence, Rate 500 g/ha, scale of 0 to 10 where 0 is no effect and 10 is complete control
[5] = Preemergence, Rate 62 g/ha, scale of 0 to 10 where 0 is no effect and 10 is complete control
[6] = Preemergence, Rate 125 g/ha, scale of 0 to 10 where 0 is no effect and 10 is complete control
[7] = Preemergence, Rate 250 g/ha, scale 0 to 10 (0 no effect, 10 complete control)
[8] = Preemergence, Rate 500 g/ha, scale of 0 to 10 where 0 is no effect and 10 is complete control
[9] = Rate 62 g/ha, flood test species, Pre-emergence, visual evaluation after twelve to sixteen days
[10] = Rate 125 g/ha, under heading Pre-emergence, flood test species, visual evaluation after twelve to sixteen days
[11] = Rate 250 g/ha, Pre-emergence (flood test species), scale 0 to 10, 0 is no effect, 10 is complete control
[12] = Rate 500 g/ha, Pre-emergence section of Table B, 0 to 10 scale (0 no effect, 10 complete control)

CC(C)N(C(=O)n1oc(=O)n(Cc2nnc(Cl)s2)c1=O)c1ccc(F)cc1F [Compound 645]
3: Cocklebur plant response rating (cocklebur; [3]) | Plant response rating, Crabgrass (crabgrass; [4]) | Crabgrass plant response rating (crabgrass; [6]) | Plant response rating, Morningglory (morningglory; [4])
1: Giant foxtail plant response rating (giant foxtail; [5]) | Plant response rating, Soybean (soybean; [1]) | Soybean plant response rating (soybean; [2]) | Morningglory plant response rating (morningglory; [3])
0: Plant response rating, Giant foxtail (giant foxtail; [1]) | Giant foxtail plant response rating (giant foxtail; [2]) | Giant foxtail plant response rating (giant foxtail; [3]) | Plant response rating, Cocklebur (cocklebur; [1]) | Cocklebur plant response rating (cocklebur; [2]) | Cocklebur plant response rating (cocklebur; [5]) | Cocklebur plant response rating (cocklebur; [6]) | Plant response rating, Cocklebur (cocklebur; [7]) | Plant response rating, Cocklebur (cocklebur; [8]) | Plant response rating, Ducksalad (0 to 10 scale, 0 is no effect, 10 is complete control) (duck salad; [9]) | Ducksalad plant response rating (0 to 10 scale, 0 is no effect, 10 is complete control) (duck salad; [10]) | Ducksalad plant response rating (duck salad; [11]) | Ducksalad plant response rating (duck salad; [12]) | Plant response rating, Sugarbeets (sugar beet; [1]) | Sugarbeets plant response rating (sugar beet; [2]) | Sugarbeets plant response rating (sugar beet; [5]) | Sugarbeets plant response rating (sugar beet; [6]) | Plant response rating, Sugarbeets (sugar beet; [7]) | Plant response rating, Sugarbeets (sugar beet; [8]) | Plant response rating, Velvetleaf (velvetleaf; [1]) | Velvetleaf plant response rating (velvetleaf; [2]) | Velvetleaf plant response rating (velvetleaf; [5]) | Velvetleaf plant response rating (velvetleaf; [6]) | Plant response rating, Velvetleaf (velvetleaf; [7]) | Plant response rating, Velvetleaf (velvetleaf; [8]) | Plant response rating, Crabgrass (crabgrass; [1]) | Crabgrass plant response rating (crabgrass; [2]) | Crabgrass plant response rating (crabgrass; [3]) | Plant response rating, Wild oats (wild oat; [1]) | Wild oats plant response rating (wild oat; [2]) | Wild oats plant response rating (wild oat; [5]) | Wild oats plant response rating (wild oat; [6]) | Plant response rating, Wild oats (wild oat; [7]) | Plant response rating, Wild oats (wild oat; [8]) | Plant response rating, S. Flatsedge (0 to 10 scale, 0 is no effect, 10 is complete control) (smallflower flatsedge; [9]) | S. Flatsedge plant response rating (0 to 10 scale, 0 is no effect, 10 is complete control) (smallflower flatsedge; [10]) | S. Flatsedge plant response rating (smallflower flatsedge; [11]) | S. Flatsedge plant response rating (smallflower flatsedge; [12]) | Plant response rating, Rice (0 to 10 scale, 0 is no effect, 10 is complete control) (rice; [9]) | Rice plant response rating (0 to 10 scale, 0 is no effect, 10 is complete control) (rice; [10]) | Rice plant response rating (rice; [11]) | Rice plant response rating (rice; [12]) | Soybean plant response rating (soybean; [5]) | Soybean plant response rating (soybean; [6]) | Plant response rating, Soybean (soybean; [7]) | Plant response rating, Soybean (soybean; [8]) | Plant response rating, Morningglory (morningglory; [1]) | Morningglory plant response rating (morningglory; [2]) | Morningglory plant response rating (morningglory; [5]) | Morningglory plant response rating (morningglory; [6]) | Plant response rating, Morningglory (morningglory; [7]) | Plant response rating, Morningglory (morningglory; [8]) | Plant response rating, Corn (corn; [1]) | Corn plant response rating (corn; [2]) | Corn plant response rating (corn; [3]) | Plant response rating, Corn (corn; [4]) | Corn plant response rating (corn; [5]) | Corn plant response rating (corn; [6]) | Plant response rating, Corn (corn; [7]) | Plant response rating, Corn (corn; [8]) | Plant response rating, Redroot pigweed (pigweed; [1]) | Redroot pigweed plant response rating (pigweed; [5]) | Redroot pigweed plant response rating (pigweed; [6]) | Plant response rating, Redroot pigweed (pigweed; [7]) | Plant response rating, Rape (rape; [1]) | Rape plant response rating (rape; [2]) | Plant response rating, Rape (rape; [4]) | Rape plant response rating (rape; [5]) | Rape plant response rating (rape; [6]) | Plant response rating, Rape (rape; [7]) | Plant response rating, Rape (rape; [8]) | Plant response rating, Wheat (wheat; [1]) | Wheat plant response rating (wheat; [2]) | Wheat plant response rating (wheat; [5]) | Wheat plant response rating (wheat; [6]) | Plant response rating, Wheat (wheat; [7]) | Plant response rating, Wheat (wheat; [8]) | Plant response rating, Nutsedge (purple nutsedge; [1]) | Nutsedge plant response rating (purple nutsedge; [2]) | Nutsedge plant response rating (purple nutsedge; [5]) | Nutsedge plant response rating (purple nutsedge; [6]) | Plant response rating, Nutsedge (purple nutsedge; [7]) | Plant response rating, Nutsedge (purple nutsedge; [8])
4: Plant response rating, Crabgrass (crabgrass; [7]) | Plant response rating, Redroot pigweed (pigweed; [8])
5: Plant response rating, Giant foxtail (giant foxtail; [7]) | Plant response rating, Crabgrass (crabgrass; [8])
2: Plant response rating, Giant foxtail (giant foxtail; [4]) | Giant foxtail plant response rating (giant foxtail; [6]) | Crabgrass plant response rating (crabgrass; [5]) | Redroot pigweed plant response rating (pigweed; [2])
7: Plant response rating, Giant foxtail (giant foxtail; [8]) | Plant response rating, Cocklebur (cocklebur; [4])

— patent US6737383B1, “Herbicidal oxadiazolidines” (priority 1999, dated 2004)
